Data on one compound can be found in US3982931A, “N,N-di-sec.butyl-benzamide herbicides” (priority 1967, dated 1976).

In data set [1] the test system is vicia sativa L. Briefly: herbicidal activity, soil treatment one day after sowing. The conditions noted are these: 6 kg/ha. Format: in vivo. The procedure, abridged: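 Pre-emergence soil treatment one day after sowing; activity scored visually on a […] scale against untreated control, from slight difference (1) to no germination or total containment at emergence (4); intermediate activity recorded as both classes, preeminent value first.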

Data set [2] relates to setaria glauca L. The description is as above. The class given is in vivo. The conditions noted are these: 6 kg/ha.
The test system of data set [3] is amaranthus retroflexus L. The description is as above. The conditions noted are these: 6 kg/ha. Format: in vivo.
Data set [4] relates to echinocloa crus-galli R.S. Described as above. Format: in vivo. Particulars: 6 kg/ha.
The test system of data set [5] is artemisia vulgaris L. Described as above. The class given is in vivo. Particulars: 6 kg/ha.
Data set [6] can be described thus: toxicity towards warm-blooded animals, LD 50 per os on rat. Particulars: in vivo, po.
Data set [7] has as its system chenopodium album L. Briefly: herbicidal activity, soil treatment one day after sowing. Format: in vivo. The conditions noted are these: 6 kg/ha.

SMILES strings stand for the structures.

Turning to `CCC(C)N(CC)C(=O)c1ccc(Cl)c(Cl)c1` (stereo not shown) [PA631, 3,4-dichloro-N-ethyl,N-sec.butyl-benzamide], the “activity on F, 0-4 scale” value in data set [1] is reported as 0-1. In data set [2], the “activity on E, 0-4 scale” value was determined as 3. Further, in data set [3], the “activity on A, 0-4 scale” value stood at 2. In addition, the “activity on D, 0-4 scale” value in data set [4] is 3. The “activity on B, 0-4 scale” value in data set [5] turned out to be 2. Besides, the LD50 in data set [6] is 930 mg/kg. For the same compound, the “activity on C, 0-4 scale” value in data set [7] is given as 3.

By LD50 is commonly meant the dose at which mortality reaches 50%.
